What all share (assay type): cell-based
For one assay, the system named is C2C12 cells. Kind of assay: Total antioxidant capacity (TEAC assay), C2C12 cells with H2O2. The note with it: C2C12 cells co-incubated with H2O2, FIG. 5B. The protocol: Treatments and cells. 6-hour and 24-hour cell culture treatments were with one of the following compounds: 1. Control or “vehicle” (DMSO+phosphate-buffered saline only); 2. […] (5 μg/mL); 3. BHB (beta hydroxybutyrate) (30 ug/mL); 4. […] Olive leaf (5 ug/mL); 6. Dynamine (1 ug/mL); 7. […] Tributyrin (5 ug/mL) Treatment materials and methods. […] Total antioxidant capacity was assessed using a Trolox equivalent antioxidant capacity (TEAC) assay.

For assay [1], the system named is LC3II/I ratio in C2C12 cells. Kind of assay: Autophagy flux (LC3II/I ratio), C2C12 cells. The note with it: 24 hours with 400 uM H2O2, FIG. 6A. As to the method:
(§1) Treatments and cells. 6-hour and 24-hour cell culture treatments were with one of the following compounds: 1. Control or “vehicle” (DMSO+phosphate-buffered saline only); 2. Niagen (5 μg/mL); 3. BHB (beta hydroxybutyrate) (30 ug/mL); 4. CBD (cannabidiol) (5 ug/mL); 5. Olive leaf (5 ug/mL); 6. Dynamine (1 ug/mL); 7. Selenium (2 ug/mL); 8. Tributyrin (5 ug/mL)
(§2) Treatment materials and methods. C2C12 cells were treated with compounds 1-8 as listed above for 6 hours without hydrogen peroxide (H2O2) (termed “unperturbed cells” throughout); or cells were treated with compounds 1-8 above for 24 hours with a concomitant 400 uM hydrogen peroxide (H2O2).
Autophagy flux (or activity) was assessed by assaying the LC3II/I ratio. This assay has been deemed the “gold standard” in autophagy monitoring (see e.g., Autophagy, 2007 Nov.-Dec.; 3(6):542-5).
(§3) Western blot analysis was performed using antibodies that detected p-H2AX protein, LC3I, LC3II, 4HNE, and NLRP3 proteins in both the C2C12 and EOMA cells. Ponceau stain was used for protein staining.

The test system of a further assay is 4HNE in C2C12 cells. Kind of assay: Oxidative stress (4HNE assay), C2C12 cells. The note with it: C2C12 cells co-incubated with H2O2, FIG. 6C. The protocol: as §1, §2
Oxidative stress was assessed using the 4HNE assay which is a product of cellular lipid oxidation (see e.g., Am J Physiol Cell Physiol. 2016 Oct. 1; 311(4): C537-0543).
as §3

Structures are written as SMILES.

As for `[Se]` [selenium], the “total antioxidant capacity (Trolox)” value is “increase (e.g., restore) total antioxidant activity” in the assay on C2C12 cells and “increase or restore antioxidant capacity” with C2C12 cells (listed as Selenium). The “autophagy (LC3II/I ratio)” value in assay [1] is listed as “increased autophagy”.
Take `CCCC(=O)OCC(COC(=O)CCC)OC(=O)CCC` [tributyrin]: the “total antioxidant capacity (Trolox)” value was “increase (e.g., restore) total antioxidant activity” with C2C12 cells and “increase or restore antioxidant capacity” with C2C12 cells (listed as Tributyrin).
For the molecule `C=C(C)[C@@H]1CCC(C)=C[C@H]1c1c(O)cc(CCCCC)cc1O` [CBD, cannabidiol], in assay [1], the “autophagy (LC3II/I ratio)” value is “increased autophagy”.
Take `CC(O)CC(=O)O` (stereo not drawn) [BHB, beta hydroxybutyrate]: in the assay with 4HNE in C2C12 cells, the “cellular oxidative stress (4HNE)” value is “decrease cellular oxidative stress”. For the same molecule, the “autophagy (LC3II/I ratio)” value in assay [1] is on record as “increased autophagy”.

The values above are taken from patent publication US12697340B2, “Compositions and methods for cellular ageing, stress resilience, autophagy, inflammation and longevity” (JUVN3 Holdings, LLC, priority 2018, dated 2026).
